Series [1] is described as follows: Distribution coefficient LogD7.4 (shake flask). It counts as physicochemical. The settings on record: for logD at 1 h: 1-octanol/10 mM phosphate buffer, pH 7.4, octanol/buffer. Here is the method:
Molecular properties (MW, clogP, and TPSA) were calculated with ChemDraw Professional v16.0.1.4(77). Distribution coefficients (LogD7.4) were measured using the shake flask method.
(§1) Biosciences (Hyderabad, India) or WuXi AppTec (Shanghai, China).
A. Distribution coefficient (LogD7.4):
(§2) Table S1: Representative assay protocol
Octanol/buffer partition coefficient. 500 µL of organic phase (1-octanol) was added to each well of a 2 mL deep well plate, followed by 500 µL of buffer and 15 µL of test substance was added. The plate was vortexed for 1 hr on a plate shaker at 1200 Method rpm. After incubation, the samples were allowed to equilibrate for 20 min and then centrifuged at 4000 rpm for 30 min for complete phase separation and analysed by […]
Buffer 10 mM phosphate buffer
Test compound concentration 0.15 mM
End Point Fractional distribution of test compound between octanol and buffer […]
B. Aqueous solubility at pH 7.4:
Thermodynamic Solubility @ RT

Series [2] can be described thus: Aqueous solubility in PBS (pH 7.4). It is filed as physicochemical. The settings on record: for solubility: PBS pH 7.4, read-out: aq. solubility; for solubility thermodynamic: PBS, pH 7.4, n = 2, read-out: Thermodynamic Solubility @ RT, mean.
Text: as §1, §2

A short description of series [3]: Stability in mouse liver microsomes. It is filed as in vitro ADME. More on the design: MLM Stability Cli mean: unit not given here. The settings on record: for half-life: mouse, liver microsomes, read-out: MLM Stability t1/2; for half-life / MLM Stability Cli mean: Table S4.
Series [4] in a line: Stability in human liver microsomes. It is filed as in vitro ADME. More on the design: HLM Stability Cli mean: unit not given here. The settings on record: for half-life: human, liver microsomes, read-out: HLM Stability t1/2. In general terms: Microsomes from liver hold many membrane-bound enzymes, among them those of drug oxidation.
A further series is described as follows: in vitro. The settings on record: dog.
The test system of the next series is MDR1 (P-gp). Kind of series: in vitro. The settings on record: dog.
The test system of a further series is P-gp (MDR1). The series is described as follows: in vitro. The following applies: dog; for efflux ratio: MDCK-MDR1, MDCK-MDR1 efflux ratio (ER).
The target in series [5] is T1, human Notum (81–451 Cys330Ser) (Homo sapiens, UniProt Q6P988, C330S).
T1 construct: human Notum (81–451 Cys330Ser) as the enzyme; made in house
T1 sequence (Q6P988 81-451 C330S): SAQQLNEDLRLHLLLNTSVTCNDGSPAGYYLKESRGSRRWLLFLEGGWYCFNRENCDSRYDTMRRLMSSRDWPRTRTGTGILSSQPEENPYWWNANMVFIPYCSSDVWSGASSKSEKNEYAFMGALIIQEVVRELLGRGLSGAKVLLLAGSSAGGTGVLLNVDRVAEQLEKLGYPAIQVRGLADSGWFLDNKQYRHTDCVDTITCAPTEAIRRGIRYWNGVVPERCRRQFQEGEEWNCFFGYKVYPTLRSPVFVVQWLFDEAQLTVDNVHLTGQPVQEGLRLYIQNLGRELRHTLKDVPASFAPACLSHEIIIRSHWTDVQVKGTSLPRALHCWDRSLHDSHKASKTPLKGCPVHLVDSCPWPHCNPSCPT
The series is described as follows: Notum OPTS biochemical assay. The settings on record: for IC50: OPTS substrate, mean, read-out: Notum IC50. The text has this:
The optimization of 6 to deliver this profile was directed at three principle areas of these hit structures: (1) aryl ring 7 (Table 1); (2) the C4 substituent on triazole 8 (Table 2); and (3) further fine-tuning of the triazole 9 (Table 3). […] This assay was used to establish SAR and to identify preferred leads for additional studies.
Methods have been described in detail elsewhere.[23]−[26] Representative concentration–response curves are provided in the Supporting Information.

The next series in a line: in vivo. More on the design: species or system mouse. The settings on record: mouse, p.o. 10 mg/kg. The method, then:
Mouse pharmacokinetic (PK) data was generated at Charles River Laboratories (Groningen, Netherlands) and GVK
Biosciences (Hyderabad, India). Rat PK was performed by WuXi AppTec (Shanghai, China).
Animal Testing Declaration: All in life phase studies were conducted in accordance with local Ethics Review
process. See, statements from each company.

A short description of series [6]: Metabolic stability in mouse hepatocytes.
The nature of series [7]: Brain tissue binding, rapid equilibrium dialysis. It is filed as in vitro ADME, rat. Here is the method: Method: rapid equilibrium dialysis.
Test System Mouse Brain Homogenate 10% w/v in PBS
Incubation Time 5 h (mouse) or 4 h (rat)
No. of Replicates Two (mouse) or three (rat)
Buffer Phosphate buffer saline, pH 7.4
% Unbound in brain % Bound in brain %
Compound Species / Matrix homogenate SD homogenate Recovery
In general terms: In equilibrium dialysis only unbound substance equilibrates across the membrane.

For series [8] the following is noted: mouse PK, comparable study; cited from earlier work.
Where [9] appears, read: MDCK-MDR1, MDCK-MDR1 AB Papp, apical to basal.
[10] abbreviates: MDCK-MDR1, MDCK-MDR1 BA Papp, basal to apical.
Setting [11] is: MDCK-MDR1, MDR1-MDCKII A to B % Recovery.
The mark [12] stands for this setting: MDCK-MDR1, MDR1-MDCKII B to A % Recovery.

Data on seven compounds can be found in publication PMC9150124, “Design of a Potent, Selective, and Brain-Penetrant Inhibitor of Wnt-Deactivating Enzyme Notum by Optimization of a Crystallographic Fragment Hit” (Journal of Medicinal Chemistry, 2022).

Each structure is given as a SMILES string. In brackets after ≈: the same amount, converted by molar mass. Several values for one entry are separate records, joined by “and”; a condition that tells them apart may be missing. Equal entries are not always repeated.

Take `OCc1cn(-c2ccc(Cl)c(Cl)c2)nn1` [6b, ((3,4-Dichlorophenyl)-1H-1,2,3-triazol-4-yl)methanol]: in series [1], the logD at 1 h came out at 2.41. The LogD7.4 in series [1] (octanol/buffer, pH 7.4) is on record as 2.4. The solubility in series [2] amounted to 100 µg/mL (≈ 410 µM). For the same compound, the solubility (thermodynamic) in [2] was 104 µg/mL (≈ 426 µM). The “MLM Cli” value in series [3] is on record as 88 μL/min/mg protein. Moreover, the half-life in [3] was 0.263 h; in [4] (Table S4), 1.92 h. Moreover, the “HLM Cli” value in series [4] was determined as 12 μL/min/mg protein. In addition, the Papp worked out at 57 ×10⁻⁶ cm/s in “in vitro” (setting [9]), 59 ×10⁻⁶ cm/s in “in vitro” (setting [10]), 56.6 ×10⁻⁶ cm/s with P-gp (MDR1) (setting [9]) and 58.3 ×10⁻⁶ cm/s in the series with P-gp (MDR1) (setting [10]). In addition, the recovery with MDR1 (P-gp) (setting [11]) was 80.7%; with MDR1 (P-gp) (setting [12]), 87.2%.
For the compound `OCc1cn(-c2ccc(Cl)c(C(F)(F)F)c2Cl)nn1` [7y, ((2,4-Dichloro-3-(trifluoromethyl)phenyl)-1H-1,2,3-triazol-4-yl)methanol], in series [5], the “fold more active than hit 6b” value came out at 50 fold, the “fold more active than unsubstituted phenyl 7a” value was 10,000 fold and the IC50 was determined as 9.5 ± 0.2 nM. In [2], the solubility is 210 µg/mL and 680 µM; the thermodynamic solubility amounted to 213 µg/mL (≈ 683 µM). In series [3], the “MLM Cli” value came out at 6.7 μL/min/mg protein, the “MLM Stability Cli mean” value was 6.65 and the half-life amounted to 1.75 h. Further, the “HLM Cli” value in series [4] worked out at 1.7 μL/min/mg protein. Moreover, in series [4] (Table S4), the “HLM Stability Cli mean” value worked out at 1.65 and the half-life amounted to 9.21 h. For the same compound, the Kp in the series “in vivo” (male, C57/BL6, brain and plasma, po, AUC0–inf brain/plasma, total drug, read-out: brain-to-plasma ratio (Kp)) is 1.2. Besides, in “in vivo” (plasma), the “AUC0–inf” value stood at 150 ng·h/mL and the Cmax turned out to be 300 ng/mL. This compound also yielded a Papp in the series “in vitro” (setting [9]) of 46 ×10⁻⁶ cm/s. The same compound had a Papp in the series “in vitro” (setting [10]) of 28 ×10⁻⁶ cm/s. Besides, the recovery with MDR1 (P-gp) (setting [11]) amounted to 94.1%. In the series with MDR1 (P-gp) (setting [12]), this compound displayed a recovery of 97.5%. The same compound showed a Papp in the series on P-gp (MDR1) (setting [9]) of 45.9 ×10⁻⁶ cm/s. This compound showed a Papp with P-gp (MDR1) (setting [10]) of 27.8 ×10⁻⁶ cm/s. For the same compound, the efflux ratio in the series on P-gp (MDR1) was 0.61. The “mouse hepatocytes Cli” value in [6] is recorded as 48 μL/min/10^6 cells. The half-life in series [6] (mouse, hepatocytes) stood at 0.598 h.
In the case of `FC(F)(F)c1c(Cl)cnc(-n2ccnn2)c1Cl` [9c, 3,5-Dichloro-2-(1H-1,2,3-triazol-1-yl)-4-(trifluoromethyl)pyridine], the IC50 in series [5] amounted to 7.5 ± 1.6 nM. Moreover, the solubility in [2] was 400 µg/mL and 1400 µM. Further, the thermodynamic solubility in series [2] came out at 399 µg/mL (≈ 1410 µM). Moreover, the “MLM Cli” value in [3] was 4.9/ND μL/min/mg protein. In series [3], the “MLM Stability Cli mean” value turned out to be 4.94. The half-life in series [3] amounted to 2 h. The Papp in the series “in vitro” (setting [9]) is 2 ×10⁻⁶ cm/s; in “in vitro” (setting [10]), 5 ×10⁻⁶ cm/s; in the series with P-gp (MDR1) (setting [9]), 1.74 ×10⁻⁶ cm/s; with P-gp (MDR1) (setting [10]) it was 4.88 ×10⁻⁶ cm/s. The recovery in the series with MDR1 (P-gp) (setting [11]) was found to be 5.93%; in the series on MDR1 (P-gp) (setting [12]) it was 65.2%. For the same compound, the efflux ratio in the series with P-gp (MDR1) worked out at 2.81.
Take `COCCc1ccc(OCC(O)CNC(C)C)cc1` (centres unmarked) [Metoprolol, reference compound]: the logD at 1 h in [1] is -0.27.
With `CC(C)NCC(O)COc1cccc2ccccc12` (centres unmarked) [Propranolol, reference compound], the fraction unbound at 4 h, 2 µM in [7] (brain homogenate, pH 7.4, SD rat, 4 h) was 0.026. For the same compound, the recovery at 4 h, 2 µM in [7] (pH 7.4, SD rat brain homogenate) was 78.2%. The “Brain binding, % bound” value in [7] (rat brain homogenate) worked out at 97.4%.
For `Cc1c(C(F)(F)F)oc2ncnc(SCC(=O)N3CC(=O)N(C)C3)c12` [compound 3], the “brain-to-plasma ratio Kp” value in series [8] is 0.29.
Take `[2H]c1nnn(-c2ccc(Cl)c(C(F)(F)F)c2Cl)c1[2H]` [d2-8l, 1-(2,4-Dichloro-3-(trifluoromethyl)phenyl)-1H-1,2,3-triazole-4,5-d2]: in series [2], the solubility is 44 µg/mL and 155 µM. Besides, the thermodynamic solubility in series [2] stood at 44 µg/mL (≈ 155 µM). Besides, the “MLM Cli” value in [3] is 5.4 μL/min/mg protein and 5.4/ND μL/min/mg protein. Besides, the half-life in [3] is 2.15 h. Further, the Papp in the series “in vitro” (setting [9]) is 48 ×10⁻⁶ cm/s; in the series “in vitro” (setting [10]) it was 35 ×10⁻⁶ cm/s; in the series with P-gp (MDR1) (setting [9]), 47.8 ×10⁻⁶ cm/s; with P-gp (MDR1) (setting [10]), 35.4 ×10⁻⁶ cm/s. Further, the recovery in the series with MDR1 (P-gp) (setting [11]) was 102%; in the series with MDR1 (P-gp) (setting [12]) it was 111%.

For orientation: logD means the decadic logarithm of the distribution of all forms, ionised or not, between an organic phase and buffer at a given pH. In general, solubility refers to how much of the substance goes into solution per volume. For orientation: solubility (thermodynamic) means solubility found after equilibrating the solid with the medium. A word on the Papp: it is the rate of passage across a membrane or cell layer, normalised by area and donor concentration. Broadly, the IC50 is the concentration that gives 50% inhibition. The Cmax is the peak of the concentration-time curve. The efflux ratio is the permeability from basolateral to apical divided by that in the opposite direction, in the common usage. What is called fraction unbound is the share of the substance not bound to proteins or other matrix.
